Data as given in ChEMBL document CHEMBL2146431, “Phosphoramidate derivatives of acyclovir: synthesis and antiviral activity in HIV-1 and HSV-1 models in vitro” (Bioorg Med Chem, 2012).
The source made the active and inactive calls. The rule behind the calls is not given here.

system: Human immunodeficiency virus 1; experiment: Antiviral activity against HIV1 pseudovirus by cell-based assay; assay type: functional, organism-based; conditions: not given

SMILES	EC50 [µM]
Cc1cn([C@H]2C[C@H](N=[N+]=[N-])[C@@H](CO)O2)c(=O)[nH]c1=O [ZIDOVUDINE]	0.003

system: not listed separately; experiment: Selectivity ratio of CC50 for african green monkey Vero cells to EC50 for HSV1 L2; assay type: ADME, cell-based; conditions: read-out: Ratio CC50/EC50

SMILES	selectivity ratio
CCCN(CCC)P(=O)(O)OCCOCn1cnc2c(=O)[nH]c(N)nc21.N	> 133
Nc1nc(=O)c2ncn(COCCOP(=O)(O)O)c2[nH]1	> 100
Nc1nc2c(ncn2COCCO)c(=O)[nH]1 [ACYCLOVIR]	> 1180
N.Nc1nc2c(ncn2COCCOP(=O)(O)N2CCOCC2)c(=O)[nH]1	> 206

system: not listed separately; experiment: Chemical stability of the compound in KCl/HCl buffer at pH 2 assessed as monoamidate formation by TLC analysis; assay type: physicochemical; conditions: not given

SMILES	Stability
Nc1nc2c(ncn2COCCOP(=O)(N2CCCC2)N2CCCC2)c(=O)[nH]1	Stable
Nc1nc2c(ncn2COCCOP(N)(N)=O)c(=O)[nH]1	Stable

system: Human immunodeficiency virus 1; experiment: Antiviral activity against HIV1 pseudovirus infected in Jurkat cells coexpressing GFP assessed as viral growth inhibition at 20 uM incubated for 2 to 8 hrs prior to infection measured after 48 hrs by flow cytofluorimetric analysis; assay type: functional; conditions: Human immunodeficiency virus 1, Jurkat; read-out: GI

SMILES	inhibition of growth at 20 µM [%]
N.Nc1nc2c(ncn2COCCOP(=O)(O)N2CCOCC2)c(=O)[nH]1	50

system: Human immunodeficiency virus 1; experiment: Antiviral activity against HIV1 pseudovirus infected in Jurkat cells coexpressing GFP assessed as viral growth inhibition up to 100 uM incubated for 2 to 8 hrs prior to infection measured after 48 hrs by flow cytofluorimetric analysis; assay type: functional, organism-based; conditions: not given

SMILES	growth inhibition (GI)
CCCN(CCC)P(=O)(O)OCCOCn1cnc2c(=O)[nH]c(N)nc21.N	Active
Nc1nc2c(ncn2COCCO)c(=O)[nH]1 [ACYCLOVIR]	Active
N.Nc1nc2c(ncn2COCCOP(=O)(O)N2CCOCC2)c(=O)[nH]1	Active

system: Human alphaherpesvirus 1; experiment: Antiviral activity against acyclovir-resistant HSV1 L2 infected in Vero E6 cells assessed as inhibition of virus-induced cytopathic effect after 48 hrs; assay type: functional, organism-based; conditions: Human alphaherpesvirus 1, L2, Vero

SMILES	EC50 [µM]
CCCN(CCC)P(=O)(O)OCCOCn1cnc2c(=O)[nH]c(N)nc21.N	37
Nc1nc(=O)c2ncn(COCCOP(=O)(O)O)c2[nH]1	41
Nc1nc2c(ncn2COCCO)c(=O)[nH]1 [ACYCLOVIR]	530
N.Nc1nc2c(ncn2COCCOP(=O)(O)N2CCOCC2)c(=O)[nH]1	25

system: not listed separately; experiment: Half life of the compound in phosphate buffer at pH 7.4 assessed as acyclovir formation by TLC analysis; assay type: physicochemical; conditions: not given

SMILES	t1/2 [h]
Nc1nc2c(ncn2COCCOP(=O)(N2CCCC2)N2CCCC2)c(=O)[nH]1	18
CCCN(CCC)P(=O)(O)OCCOCn1cnc2c(=O)[nH]c(N)nc21.N	> 120
Nc1nc2c(ncn2COCCOP(N)(N)=O)c(=O)[nH]1	4
N.Nc1nc2c(ncn2COCCOP(=O)(O)N2CCOCC2)c(=O)[nH]1	> 120

system: Human immunodeficiency virus 1; experiment: Antiviral activity against HIV1 pseudovirus infected in Jurkat cells coexpressing GFP assessed as viral growth inhibition incubated for 2 to 8 hrs prior to infection measured after 48 hrs by flow cytofluorimetric analysis; assay type: functional, organism-based; conditions: not given

SMILES	growth inhibition (GI)
CCCN(CCC)P(=O)(O)OCCOCn1cnc2c(=O)[nH]c(N)nc21.N	Dose-dependent effect
Nc1nc2c(ncn2COCCO)c(=O)[nH]1 [ACYCLOVIR]	Dose-dependent effect
N.Nc1nc2c(ncn2COCCOP(=O)(O)N2CCOCC2)c(=O)[nH]1	Dose-dependent effect

same assay, conditions: Human immunodeficiency virus 1, Jurkat

SMILES	EC50 [µM]
Cc1cn([C@H]2C[C@H](N=[N+]=[N-])[C@@H](CO)O2)c(=O)[nH]c1=O [ZIDOVUDINE]	0.09

system: not listed separately; experiment: Selectivity ratio of CC50 for african green monkey Vero cells to EC50 for acyclovir-resistant HSV1 L2; assay type: ADME, cell-based; conditions: read-out: Ratio CC50/EC50

SMILES	selectivity ratio
CCCN(CCC)P(=O)(O)OCCOCn1cnc2c(=O)[nH]c(N)nc21.N	> 54
Nc1nc(=O)c2ncn(COCCOP(=O)(O)O)c2[nH]1	> 49
Nc1nc2c(ncn2COCCO)c(=O)[nH]1 [ACYCLOVIR]	> 3.8
N.Nc1nc2c(ncn2COCCOP(=O)(O)N2CCOCC2)c(=O)[nH]1	> 80

system: not listed separately; experiment: Half life of the compound in KCl/HCl buffer at pH 2 assessed as acyclovir monophosphate formation by TLC analysis; assay type: physicochemical; conditions: not given

SMILES	t1/2 [h]
Nc1nc2c(ncn2COCCOP(=O)(N2CCCC2)N2CCCC2)c(=O)[nH]1	0.167
CCCN(CCC)P(=O)(O)OCCOCn1cnc2c(=O)[nH]c(N)nc21.N	< 0.083
Nc1nc2c(ncn2COCCOP(N)(N)=O)c(=O)[nH]1	0.083
N.Nc1nc2c(ncn2COCCOP(=O)(O)N2CCOCC2)c(=O)[nH]1	< 0.083

system: Human alphaherpesvirus 1; experiment: Resistance ratio of EC50 for acyclovir-resistant HSV1 L2 to EC50 for HSV1 L2; assay type: functional; conditions: not given

SMILES	Ratio EC50
CCCN(CCC)P(=O)(O)OCCOCn1cnc2c(=O)[nH]c(N)nc21.N	2.5
N.Nc1nc2c(ncn2COCCOP(=O)(O)N2CCOCC2)c(=O)[nH]1	2.5

system: Human alphaherpesvirus 1; experiment: Antiviral activity against HSV1 L2 infected in Vero E6 cells assessed as inhibition of virus-induced cytopathic effect after 48 hrs; assay type: functional, organism-based; conditions: Human alphaherpesvirus 1, L2, Vero

SMILES	EC50 [µM]
CCCN(CCC)P(=O)(O)OCCOCn1cnc2c(=O)[nH]c(N)nc21.N	15
Nc1nc(=O)c2ncn(COCCOP(=O)(O)O)c2[nH]1	20
Nc1nc2c(ncn2COCCO)c(=O)[nH]1 [ACYCLOVIR]	1.7
N.Nc1nc2c(ncn2COCCOP(=O)(O)N2CCOCC2)c(=O)[nH]1	9.7

system: not listed separately; experiment: Half life of the compound in KCl/KOH buffer at pH 12 assessed as acyclovir and acyclovir monophosphate formation by TLC analysis; assay type: physicochemical; conditions: not given

SMILES	t1/2 [h]
CCCN(CCC)P(=O)(O)OCCOCn1cnc2c(=O)[nH]c(N)nc21.N	96
N.Nc1nc2c(ncn2COCCOP(=O)(O)N2CCOCC2)c(=O)[nH]1	> 120

system: not listed separately; experiment: Cytotoxicity against african green monkey Vero E6 cells after 72 hrs by trypan blue staining; assay type: cell-based; conditions: chlorocebus sabaeus

SMILES	CC50 at 72 h [µM]
CCCN(CCC)P(=O)(O)OCCOCn1cnc2c(=O)[nH]c(N)nc21.N	> 2000
Nc1nc(=O)c2ncn(COCCOP(=O)(O)O)c2[nH]1	> 2000
Nc1nc2c(ncn2COCCO)c(=O)[nH]1 [ACYCLOVIR]	> 2000
N.Nc1nc2c(ncn2COCCOP(=O)(O)N2CCOCC2)c(=O)[nH]1	> 2000

system: not listed separately; experiment: Half life of the compound in KCl/KOH buffer at pH 12 assessed as acyclovir formation by TLC analysis; assay type: physicochemical; conditions: not given

SMILES	t1/2 [h]
Nc1nc2c(ncn2COCCOP(=O)(N2CCCC2)N2CCCC2)c(=O)[nH]1	3
Nc1nc2c(ncn2COCCOP(N)(N)=O)c(=O)[nH]1	< 1

system: Jurkat; experiment: Cytotoxicity against human Jurkat cells up to 2000 uM after 48 hrs by trypan blue staining; assay type: cell-based; conditions: not given

SMILES	Activity
Nc1nc2c(ncn2COCCOP(=O)(N2CCCC2)N2CCCC2)c(=O)[nH]1	Non-toxic
CCCN(CCC)P(=O)(O)OCCOCn1cnc2c(=O)[nH]c(N)nc21.N	Non-toxic
Nc1nc(=O)c2ncn(COCCOP(=O)(O)O)c2[nH]1	Non-toxic
Nc1nc2c(ncn2COCCOP(N)(N)=O)c(=O)[nH]1	Non-toxic
N.Nc1nc2c(ncn2COCCOP(=O)(O)N2CCOCC2)c(=O)[nH]1	Non-toxic
